Results: patent US20260007683A1, “PHARMACEUTICAL COMPOSITIONS COMPRISING HIV INTEGRASE INHIBITORS” (Gilead Sciences, Inc., priority 2024, published 2026)

Legend:
[1] = Hygroscopicity by dynamic vapor sorption (DVS); assay type: physicochemical; settings: for change of solid form post DVS experiment: after DVS cycle 5-95% RH at 25° C.; for water absorbed (dynamic vapor sorption): up to 95% RH at 25° C.
Procedure: Hygroscopicity was studied using dynamic vapor sorption (DVS, TA Q5000 SA, TA Instruments, New Castle, DE or DVS, DVS Intrinsic, Surface Measurement Systems, London, UK). A sample (1-20 mg) was placed in an aluminum DVS pan and loaded on the sample side of the twin pan balance. The water sorption and desorption were studied as a function of relative humidity (RH) at 25° C. In 10% RH increments, the relative humidity was increased from 5% RH to 95% RH and then decreased back to 5%. […] Data analysis was performed using Universal Analysis 2000 Version 4.7A (TA Instruments, New Castle, DE) for TA DVS runs and Microsoft Excel for SMS DVS runs.

[2] = Drying of solid form under ambient conditions (form conversion); assay type: physicochemical
Excerpt: Compound of Formula I, Form II is a metastable methanol solvated phase. It was isolated when compound of Formula I, Form I was slurried in methanol for about 60 days and identified by x-ray of the wet cake.

| change of solid form post DVS experiment [1] | water absorbed (dynamic vapor sorption) [1] | Structure (SMILES) | form conversion upon drying [2] |
| --- | --- | --- | --- |
| not have changed form | about 0.87% | O=C(NCc1c(F)cc(F)cc1F)c1cn2c(c(O)c1=O)C(=O)N1CCCC[C@H]2C1 [Compound of Formula I, Form III, (7S)-12-hydroxy-1,11-dioxo-N-(2,4,6-trifluorobenzyl)-1,4,5,6,7,11-hexahydro-3H-2,7-methanopyrido[1,2-a][1,4]diazonine-10-carboxamide] | – |
| not have changed form | about 0.097% | O=C(NCc1c(F)cc(F)cc1F)c1cn2c(c(O)c1=O)C(=O)N1CCCC[C@H]2C1 [Compound of Formula I, Form I, (7S)-12-hydroxy-1,11-dioxo-N-(2,4,6-trifluorobenzyl)-1,4,5,6,7,11-hexahydro-3H-2,7-methanopyrido[1,2-a][1,4]diazonine-10-carboxamide] | – |
| not have changed form | about 3.5% | O=C(NCc1c(F)cc(F)cc1F)c1cn2c(c(O)c1=O)C(=O)N1CCCC[C@H]2C1 [Compound of Formula I, Form IV, (7S)-12-hydroxy-1,11-dioxo-N-(2,4,6-trifluorobenzyl)-1,4,5,6,7,11-hexahydro-3H-2,7-methanopyrido[1,2-a][1,4]diazonine-10-carboxamide] | – |
| – | – | O=C(NCc1c(F)cc(F)cc1F)c1cn2c(c(O)c1=O)C(=O)N1CCCC[C@H]2C1 [Compound of Formula I, Form II, (7S)-12-hydroxy-1,11-dioxo-N-(2,4,6-trifluorobenzyl)-1,4,5,6,7,11-hexahydro-3H-2,7-methanopyrido[1,2-a][1,4]diazonine-10-carboxamide] | convert to compound of Formula I, Form III |
